The text below walks through data of patent US20090123536A1, “Oral Pharmaceutical Form of Losartan” (Flamel Technologies, S.A., priority 2005, published 2009).

The structures appear in SMILES notation. Values after ≈ are worked out from the molar mass of the structure shown.

This series in a line: Solubility of losartan as a function of pH. Format: physicochemical. Conditions: water. The source says:
It is thus conceived that for losartan, whose solubility depends greatly on the gastric pH (cf. table below), the solubilization, and thus ultimately the plasmatic concentration profile, is subject to great variation from one individual to another and, for the same individual, from one day to another.

With `CCCCc1nc(Cl)c(CO)n1Cc1ccc(-c2ccccc2-c2nn[nH]n2)cc1` [losartan, {2-butyl-4-chloro-1-[4-[2-(1H-tetrazol-5-yl)phenyl]benzyl]-1H-imidazol-5-yl}methanol], the solubility runs as follows: (aqueous buffer, pH 3.0, 37° C.) 100 µg/mL (≈ 0.236 mM); (aqueous buffer, pH 4.5, 37° C.) 120 µg/mL (≈ 0.284 mM); (aqueous buffer, pH 5.0, 37° C.) 300 µg/mL (≈ 0.709 mM); (aqueous buffer, pH 6.0, 37° C.) 1200 µg/mL (≈ 2.84 mM); (aqueous buffer, pH 6.8, 37° C.) 10000 µg/mL (≈ 23.6 mM); (aqueous buffer, pH 8.5, 37° C.) above 550000 µg/mL. Further, the solubility was 1000 µg/mL (≈ 2.36 mM) (simulated gastric fluid, pH 1.4, 37° C.) and 600 µg/mL (≈ 1.42 mM) (simulated gastric fluid, pH 2.0, 37° C.).
